From patent US11052092B2, “N-{[2-(piperidin-1-yl)phenyl](phenyl)methyl}-2-(3-oxo-3,4-dihydro-2H-1,4-benzoxazin-7-yl)acetamide derivatives and related compounds as ROR-gamma modulators for treating autoimmune diseases” (Genfit, priority 2017, dated 2021)

Legend:
[1] = target: T1, human RORγt (Homo sapiens, UniProt P51449); experiment: RORE Luciferase/RORγt transactivation assay; assay type: cell-based; details: COS-7 cells transfected with human IL-17 promoter luciferase reporter and RORγt plasmid; 20 h with compound; read-out: IC50, RORγt activity inhibition
T1 construct: the full-length cDNA of human RORγt; expressed in transfected cells; host or cells: COS-7 (monkey kidney)
T1 sequence (P51449 1-497 isoform P51449-2): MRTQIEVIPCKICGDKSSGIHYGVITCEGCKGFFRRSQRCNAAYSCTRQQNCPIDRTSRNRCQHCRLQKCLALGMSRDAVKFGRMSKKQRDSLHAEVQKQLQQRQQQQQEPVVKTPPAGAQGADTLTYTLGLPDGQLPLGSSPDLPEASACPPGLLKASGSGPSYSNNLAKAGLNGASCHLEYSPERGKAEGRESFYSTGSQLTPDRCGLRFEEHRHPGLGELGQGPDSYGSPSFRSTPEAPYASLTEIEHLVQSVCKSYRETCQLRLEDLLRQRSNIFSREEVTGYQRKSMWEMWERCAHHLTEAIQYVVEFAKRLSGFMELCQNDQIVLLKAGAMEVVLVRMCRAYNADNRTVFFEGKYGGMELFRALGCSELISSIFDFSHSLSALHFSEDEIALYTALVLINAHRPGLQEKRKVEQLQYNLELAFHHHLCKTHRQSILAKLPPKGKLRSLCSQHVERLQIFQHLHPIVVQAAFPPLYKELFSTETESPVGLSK
In short: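 COS-7 cells were transiently co-transfected with a human IL-17 promoter (RORE/CNS)–luciferase reporter and a RORγt expression plasmid, then seeded at 10000 cells/well in serum-free, phenol red-free DMEM. Compounds were added at 0.3% DMSO final. Luciferase was read with Steady-Glo, and IC50 and Emax were derived.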

[2] = target: T2, RORγt ligand-binding domain (RORγt-LBD) (Homo sapiens, UniProt P51449); experiment: Time-resolved FRET (TR-FRET) RORγt coactivator assay; details: GST-RORγ-LBD, biotinylated RIP140 peptide, 2 hours at room temperature
T2 construct: 20 nM recombinantly expressed RORγ-LBD fused to GST
T2 sequence (P51449 269-508 limits assumed): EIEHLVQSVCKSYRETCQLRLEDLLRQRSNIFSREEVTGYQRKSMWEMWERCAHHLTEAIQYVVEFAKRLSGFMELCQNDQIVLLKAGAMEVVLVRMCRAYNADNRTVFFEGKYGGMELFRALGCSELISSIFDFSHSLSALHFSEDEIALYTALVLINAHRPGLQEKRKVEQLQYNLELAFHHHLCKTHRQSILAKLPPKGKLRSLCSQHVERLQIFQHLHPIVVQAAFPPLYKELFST
From the text: Time-resolved FRET (TR-FRET) RORγt coactivator assay was used to identify RORγ modulator compounds with ligand-dependent coactivator displacement. The assay uses a d2-labeled anti-GST antibody, synthetic N-terminally biotinylated peptide which is derived from nuclear receptor coactivator protein RIP140, and a RORγt ligand-binding domain (RORγt-LBD) that is tagged with glutathione-S-transferase (GST). The influence of compounds on the RORγ-peptide interaction relies on the binding dependent energy transfer from a donor to an acceptor fluorophor attached to the binding partner of interest. […] For reduction of background from compound fluorescence, TR-FRET method makes use of generic fluorophore labels and time resolved detection.
The assays were done in a final volume of 20 μl in a 384 well plate in a CHAPS buffer (2 mM CHAPS; 1 mM DTT, 2 mM EDTA; 0.1% BSA), containing 20 nM recombinantly expressed RORγ-LBD fused to GST, 30 nM N-terminally biotinylated peptide, 1 nM streptavidin-terbium conjugate and 20 nM d2 labeled-anti-GST. Test compounds were diluted using 10 mM stock solution. The range of the final compound concentrations used in this test was from 0.3 nM to 30 μM (logarithmic scale). DMSO content of the samples was kept at 1%. The assay was equilibrated for 2 hours in the dark at room temperature in 384 well plates (Falcon). The signal was detected by an Ultra384 reader (TECAN). […] Compounds that promote coactivator displacement induce a concentration-dependent decrease in time-resolved fluorescent signal. Data were collected and analyzed using GraphPad Prism software (GraphPad Software V5.02, San Diego Calif. USA). IC50 in μM and Emax in % were reported for each compound.

[3] = system: Murine EL-4 lymphoma cell line overexpressing human RORγt; experiment: IL-17 secretion from EL4 murine lymphoma; assay type: cell-based; details: Mus musculus; human RORγt-transfected EL4 cells, PMA (10 ng/mL) and ionomycin (1 μM), 24 h; read-out: IC50, IL-17 secretion inhibition
Protocol: Murine EL-4 lymphoma cell line overexpressing human RORγt was used in this functional assay to assess compound ability to inhibit IL-17 cytokine secretion.
EL-4 cells are maintained in a standard culture medium RPMI supplemented with 10% fetal calf serum, 1% sodium pyruvate, 1% essential amino acids and 1% antibiotics at 37° C. in a humidified atmosphere of 5% CO02 and 95% air. Culture medium was changed every 2 days. EL4 cells were transfected with a plasmid encoding hRORγt (sequence identical to published sequence NM 001001523). […] Briefly, 1 μg of DNA/1 million cells was served to transfect EL-4 cells. Cell/DNA suspension was transferred into certified cuvette and the electroporation of RORγt plasmid was carried out using appropriate Nucleofector® program.
Cells were seeded in 96 well plates at a density of 150000 cells/I well then treated with compounds of this invention at indicated concentrations and incubated for 24 hours at 37° C. in a humidified atmosphere of 5% C02 and 95% air. EL-4 cells were pretreated with test compounds (RORγ modulators) and stimulated with PMA (10 ng/mL) and ionomycin (1 μM final concentration) in the presence of test compound concentrations for additional 24 h at 37° C. in a humidified atmosphere of 5% C02 and 95% air. Subsequently, supernatants were collected (after centrifugation at 300 g for 10 minutes) to determine the concentrations of IL-17 by HTRF (CisBio, France) or ELISA (R&D Systems Europe) according to the manufacturer's protocols.

IC50 [1]	IC50 [2]	IC50 [3]	melting point	SMILES
1000 to 10000 nM	1000 to 10000 nM	–	–	O=C(Cc1ccc2c(c1)C(=O)C(=O)N2)NC(c1ccccc1)c1ccccc1N1CCCCC1 (centres unmarked) [Cpd. 20, 2-(2,3-dioxo-2,3-dihydro-1H-indol-5-yl)-N-{phenyl[2-(piperidin-1-yl)phenyl]methyl}acetamide]
10 to 100 nM	< 10 nM	–	–	Cc1ccc(C(NC(=O)C2(c3ccc4c(c3)CS(=O)(=O)N4)CC2)c2ccc(C)o2)c(C)c1 (centres unmarked) [Cpd. 63, N-[(2,4-dimethylphenyl)(5-methylfuran-2-yl)methyl]-1-(2,2-dioxo-1,3-dihydro-2,1-benzothiazol-5-yl)cyclopropane-1-carboxamide]
–	1000 to 10000 nM	–	–	CC1(C)Oc2cc(CC(=O)NC(c3ccccc3)c3ccccc3N3CCCCC3)ccc2NC1=O (centres unmarked) [Cpd. 19, 2-(2,2-dimethyl-3-oxo-3,4-dihydro-2H-1,4-benzoxazin-7-yl)-N-{phenyl[2-(piperidin-1-yl)phenyl]methyl}acetamide]
1000 to 10000 nM	10 to 100 nM	–	–	O=C1Cc2cc(CC(=O)NC(c3ccccc3)c3ccccc3N3CCCCC3)ccc2N1 (centres unmarked) [Cpd. 15, 2-(2-oxo-2,3-dihydro-1H-indol-5-yl)-N-{phenyl[2-(piperidin-1-yl)phenyl]methyl}acetamide]
100 to 1000 nM	10 to 100 nM	–	–	Cc1ccc(C(NC(=O)Cc2ccc3c(ccn3CCC(=O)OC(C)(C)C)c2)c2ccc(C)o2)c(C)c1 (centres unmarked) [Cpd. 99, tert-butyl 3-[5-({[(2,4-dimethylphenyl)(5-methylfuran-2-yl)methyl]carbamoyl}methyl)-1H-indol-1-yl]propanoate]
1000 to 10000 nM	100 to 1000 nM	–	–	COc1ccc(C(NC(=O)Cc2ccc3c(c2)OC(C)(C)C(=O)N3)c2ccc(C)o2)c(N2CCOCC2)c1 (centres unmarked) [Cpd. 30, 2-(2,2-dimethyl-3-oxo-3,4-dihydro-2H-1,4-benzoxazin-7-yl)-N-{[4-methoxy-2-(morpholin-4-yl)phenyl](5-methylfuran-2-yl)methyl}acetamide]
100 to 1000 nM	100 to 1000 nM	–	–	Cc1ccc(C(NC(=O)Cc2ccc3c(c2)C(=Cc2c(C)noc2C)C(=O)N3)c2ccc(C)o2)c(N2CCCCC2)c1 (centres unmarked) [Cpd. 43, 2-{3-[(dimethyl-1,2-oxazol-4-yl)methylidene]-2-oxo-2,3-dihydro-1H-indol-5-yl}-N-{[4-methyl-2-(piperidin-1-yl)phenyl](5-methylfuran-2-yl)methyl}acetamide]
–	100 to 1000 nM	–	–	Cc1ccc(C(NC(=O)Cc2ccc3[nH]c(=O)cc(C)c3c2)c2ccccc2)c(N2CCOCC2)c1 (centres unmarked) [Cpd. 8, N-{[4-methyl-2-(morpholin-4-yl)phenyl](phenyl)methyl}-2-(4-methyl-2-oxo-1,2-dihydroquinolin-6-yl)acetamide]
100 to 1000 nM	100 to 1000 nM	–	–	Cc1ccc(C(NC(=O)Cc2ccc3c(c2)C(=O)C(=O)N3C)c2ccc(C)o2)c(N2CCCCC2)c1 (centres unmarked) [Cpd. 45, 2-(1-methyl-2,3-dioxo-2,3-dihydro-1H-indol-5-yl)-N-{[4-methyl-2-(piperidin-1-yl)phenyl](5-methylfuran-2-yl)methyl}acetamide]
100 to 1000 nM	100 to 1000 nM	–	–	Cc1ccc(C(NC(=O)Cc2ccc3c(ccn3CCC(=O)OC(C)(C)C)c2)c2ccc(C)o2)c(Br)c1 (centres unmarked) [Cpd. 100, tert-butyl 3-[5-({[(2-bromo-4-methylphenyl)(5-methylfuran-2-yl)methyl]carbamoyl}methyl)-1H-indol-1-yl]propanoate]
1000 to 10000 nM	100 to 1000 nM	–	–	Cc1ccc(C(NC(=O)Cc2ccc3c(c2)CC(=O)N3)c2ccccc2)c(N2CCOCC2)c1 (centres unmarked) [Cpd. 18, N-{[4-methyl-2-(morpholin-4-yl)phenyl](phenyl)methyl}-2-(2-oxo-2,3-dihydro-1H-indol-5-yl)acetamide]
> 10000 nM	100 to 1000 nM	–	–	O=C1COc2cc(CC(=O)NC(c3ccccc3)c3ccccc3N3CCOCC3)ccc2N1 (centres unmarked) [Cpd. 7, N-{[2-(morpholin-4-yl)phenyl](phenyl)methyl}-2-(3-oxo-3,4-dihydro-2H-1,4-benzoxazin-7-yl)acetamide]
100 to 1000 nM	100 to 1000 nM	–	–	Cc1ccc(C(NC(=O)Cc2ccc3c(c2)C(C)(C)C(=O)N3C)c2ccc(C)o2)c(N2CCCCC2)c1 (centres unmarked) [Cpd. 40, N-{[4-methyl-2-(piperidin-1-yl)phenyl](5-methylfuran-2-yl)methyl}-2-(1,3,3-trimethyl-2-oxo-2,3-dihydro-1H-indol-5-yl)acetamide]
100 to 1000 nM	100 to 1000 nM	–	–	Cc1ccc(C(NC(=O)Cc2ccc3c(c2)OC(C)(C)C(=O)N3)c2ccccc2)c(N2CCOCC2)c1 (centres unmarked) [Cpd. 21, 2-(2,2-dimethyl-3-oxo-3,4-dihydro-2H-1,4-benzoxazin-7-yl)-N-{[4-methyl-2-(morpholin-4-yl)phenyl](phenyl)methyl}acetamide]
100 to 1000 nM	1000 to 10000 nM	–	–	Cc1ccc(C(NC(=O)Cc2cccc3c2CN(S(C)(=O)=O)C3)c2ccc(C)o2)c(N2CCCCC2)c1 (centres unmarked) [Cpd. 50, 2-(2-methanesulfonyl-2,3-dihydro-1H-isoindol-4-yl)-N-{[4-methyl-2-(piperidin-1-yl)phenyl](5-methylfuran-2-yl)methyl}acetamide]
10 to 100 nM	–	< 100 nM	92 °C	Cc1ccc(C(NC(=O)Cc2ccc3c(CO)c[nH]c3c2)c2ccc(C)o2)c(N2CCCCC2)c1 (centres unmarked) [Cpd. 88, 2-[3-(hydroxymethyl)-1H-indol-6-yl]-N-{[4-methyl-2-(piperidin-1-yl)phenyl](5-methylfuran-2-yl)methyl}acetamide]
10 to 100 nM	–	< 100 nM	88 °C	Cc1ccc(C(NC(=O)Cc2ccc3c(ccn3C(=O)N3CCOCC3)c2)c2ccc(C)o2)c(N2CCCCC2)c1 (centres unmarked) [Cpd. 116, N-{[4-methyl-2-(piperidin-1-yl)phenyl](5-methylfuran-2-yl)methyl}-2-[1-(morpholine-4-carbonyl)-1H-indol-5-yl]acetamide]
–	1000 to 10000 nM	–	–	O=C(Cc1ccc2[nH]c(=O)c(=O)[nH]c2c1)NC(c1ccccc1)c1ccccc1N1CCCCC1 (centres unmarked) [Cpd. 12, 2-(2,3-dioxo-1,2,3,4-tetrahydroquinoxalin-6-yl)-N-{phenyl[2-(piperidin-1-yl)phenyl]methyl}acetamide]
